Results reported in PubChem BioAssay (NCI).
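Compound exposure: 48 hours, 5 concentrations, 96-well plates. The concentration for 50% growth inhibition is given as GI50. TGI: concentration producing complete growth inhibition.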

Experiments:
Assay in all cases: NCI tumour cell line growth inhibition, 48 h
[1] = system: 786-0 renal
[2] = system: A549 NSCLC
[3] = system: ACHN renal
[4] = system: BT-549 breast
[5] = system: CAKI-1 renal
[6] = system: CCRF-CEM leukemia
[7] = system: COLO 205 colon
[8] = system: DU-145 prostate
[9] = system: EKVX NSCLC
[10] = system: HCC-2998 colon
[11] = system: HCT-116 colon
[12] = system: HCT-15 colon
[13] = system: HL-60(TB) leukemia
[14] = system: HOP-62 NSCLC
[15] = system: HOP-92 NSCLC
[16] = system: HT29 colon
[17] = system: K-562 leukemia
[18] = system: KM12 colon
[19] = system: M14 melanoma
[20] = system: MALME-3M melanoma
[21] = system: MCF7 breast
[22] = system: MDA-MB-231 breast
[23] = system: MDA-MB-435
[24] = system: MOLT-4 leukemia
[25] = system: NCI-H226 lung
[26] = system: NCI-H23 lung
[27] = system: NCI-H460 lung
[28] = system: NCI-H522 lung
[29] = system: NCI/ADR-RES ovarian
[30] = system: OVCAR-3 ovarian
[31] = system: OVCAR-4 ovarian
[32] = system: OVCAR-5 ovarian
[33] = system: OVCAR-8 ovarian
[34] = system: PC-3 prostate
[35] = system: RPMI-8226 leukemia
[36] = system: RXF 393 renal
[37] = system: SF-268 CNS
[38] = system: SF-295 CNS
[39] = system: SK-MEL-2 melanoma
[40] = system: SN12C renal
[41] = system: SNB-19 CNS
[42] = system: SR leukemia
[43] = system: SW-620 colon
[44] = system: T-47D breast
[45] = system: TK-10 renal
[46] = system: U251 CNS
[47] = system: UACC-257 melanoma
[48] = system: UO-31 renal
[49] = system: A498 renal
[50] = system: HS 578T breast
[51] = system: IGROV1 ovarian
[52] = system: LOX IMVI melanoma
[53] = system: SF-539 CNS
[54] = system: SK-MEL-28 melanoma
[55] = system: SK-MEL-5 melanoma
[56] = system: SK-OV-3 ovarian
[57] = system: SNB-75 CNS
[58] = system: UACC-62 melanoma

For `CC1(C)C(=O)N(O)C(C)(C)N1N=O`, the TGI [1] was greater than 10000 nM, the TGI [2] was greater than 10000 nM and the TGI [3] was greater than 10000 nM. The TGI [4] was greater than 10000 nM, the TGI [5] was greater than 10000 nM and the TGI [6] was greater than 10000 nM. It also gave a TGI [7] greater than 10000 nM, a TGI [8] greater than 10000 nM and a TGI [9] greater than 10000 nM. For the same compound, the TGI [10] was greater than 10000 nM, the TGI [11] was greater than 10000 nM and the TGI [12] was greater than 10000 nM. The TGI [13] was greater than 10000 nM, the TGI [14] was greater than 10000 nM and the TGI [15] was greater than 10000 nM. For the same compound, the TGI [16] was greater than 10000 nM, the TGI [17] was greater than 10000 nM and the TGI [18] was greater than 10000 nM. It also gave a TGI [19] greater than 10000 nM, a TGI [20] greater than 10000 nM and a TGI [21] greater than 10000 nM. It also gave a TGI [22] greater than 10000 nM, a TGI [23] greater than 10000 nM and a TGI [24] greater than 10000 nM. The TGI [25] was greater than 10000 nM, the TGI [26] was greater than 10000 nM and the TGI [27] was greater than 10000 nM. For the same compound, the TGI [28] was greater than 10000 nM, the TGI [29] was greater than 10000 nM and the TGI [30] was greater than 10000 nM. For the same compound, the TGI [31] was greater than 10000 nM, the TGI [32] was greater than 10000 nM and the TGI [33] was greater than 10000 nM. It also gave a TGI [34] greater than 10000 nM, a TGI [35] greater than 10000 nM and a TGI [36] greater than 10000 nM. It also gave a TGI [37] greater than 10000 nM, a TGI [38] greater than 10000 nM and a TGI [39] greater than 10000 nM. It also gave a TGI [40] greater than 10000 nM, a TGI [41] greater than 10000 nM and a TGI [42] greater than 10000 nM. It also gave a TGI [43] greater than 10000 nM, a TGI [44] greater than 10000 nM and a TGI [45] greater than 10000 nM. The TGI [46] was greater than 10000 nM, the TGI [47] was greater than 10000 nM and the TGI [48] was greater than 10000 nM.
`CN1C(=O)N(C)C2C1NN=c1s/c(=C\c3c[nH]c4ccccc34)c(=O)n12` (stereo not given) showed a GI50 [1] of 125 nM, a TGI [1] greater than 100000 nM and a GI50 [49] of 68.8 nM. The TGI [49] was 602 nM, the GI50 [2] was 109 nM and the TGI [2] was greater than 100000 nM. The GI50 [3] was 75.4 nM, the TGI [3] was greater than 100000 nM and the GI50 [4] was 55.7 nM. It also gave a TGI [4] greater than 100000 nM, a GI50 [5] of 30.9 nM and a TGI [5] greater than 100000 nM. For the same compound, the GI50 [6] was 33.7 nM, the TGI [6] was greater than 100000 nM and the GI50 [7] was 36.3 nM. The TGI [7] was 564 nM, the GI50 [8] was 42.8 nM and the TGI [8] was greater than 28900 nM. It also gave a GI50 [9] of 57.7 nM, a TGI [9] greater than 100000 nM and a GI50 [10] of 35.2 nM. The TGI [10] was greater than 100000 nM, the GI50 [11] was 37.1 nM and the TGI [11] was greater than 100000 nM. It also gave a GI50 [12] of 36.5 nM, a TGI [12] greater than 100000 nM and a GI50 [13] of 30.5 nM. For the same compound, the TGI [13] was 858 nM, the GI50 [14] was 46 nM and the TGI [14] was 52600 nM. It also gave a GI50 [15] of 360 nM, a TGI [15] greater than 100000 nM and a GI50 [50] of 34.2 nM. The TGI [50] was greater than 90900 nM, the GI50 [16] was 37.7 nM and the TGI [16] was greater than 100000 nM. The GI50 [51] was 65.4 nM, the TGI [51] was greater than 100000 nM and the GI50 [17] was 31.2 nM. It also gave a TGI [17] greater than 100000 nM, a GI50 [18] of 40 nM and a TGI [18] greater than 100000 nM. For the same compound, the GI50 [52] was 51.8 nM, the TGI [52] was greater than 100000 nM and the GI50 [19] was 29.4 nM. It also gave a TGI [19] greater than 100000 nM, a GI50 [20] of 68.9 nM and a TGI [20] greater than 100000 nM. It also gave a GI50 [21] of 33.8 nM, a TGI [21] greater than 100000 nM and a GI50 [22] of 67.1 nM. It also gave a TGI [22] greater than 100000 nM, a GI50 [23] of 16.2 nM and a TGI [23] of 48.2 nM. The GI50 [24] was 64.4 nM, the TGI [24] was greater than 100000 nM and the GI50 [25] was 143 nM. For the same compound, the TGI [25] was greater than 100000 nM, the GI50 [26] was 47.9 nM and the TGI [26] was greater than 100000 nM. It also gave a GI50 [27] of 39.7 nM, a TGI [27] greater than 100000 nM and a GI50 [28] of 33.1 nM. For the same compound, the TGI [28] was 18900 nM, the GI50 [29] was 34 nM and the GI50 [30] was 32.5 nM. It also gave a TGI [30] greater than 100000 nM, a TGI [31] greater than 100000 nM and a GI50 [32] of 73.1 nM. For the same compound, the TGI [32] was greater than 100000 nM, the GI50 [33] was 54.7 nM and the TGI [33] was greater than 100000 nM. It also gave a GI50 [34] of 41.3 nM, a TGI [34] greater than 100000 nM and a GI50 [35] of 34.6 nM. For the same compound, the TGI [35] was 1550 nM, the GI50 [37] was 588 nM and the TGI [37] was greater than 100000 nM. The GI50 [38] was 30.4 nM, the TGI [38] was 33600 nM and the GI50 [53] was 30.1 nM. It also gave a TGI [53] of 55900 nM, a GI50 [39] of 34600 nM and a TGI [39] greater than 100000 nM. It also gave a GI50 [54] of 34500 nM, a TGI [54] greater than 100000 nM and a GI50 [55] of 34.7 nM. For the same compound, the TGI [55] was 184 nM, the GI50 [56] was 82 nM and the TGI [56] was greater than 100000 nM. It also gave a GI50 [40] of 71.4 nM, a TGI [40] greater than 100000 nM and a GI50 [41] of 44.3 nM. It also gave a TGI [41] greater than 100000 nM, a GI50 [57] of less than 15.8 nM and a GI50 [42] of 34.5 nM. It also gave a TGI [42] greater than 100000 nM, a GI50 [43] of 44.2 nM and a TGI [43] greater than 100000 nM. The GI50 [45] was 34700 nM, the TGI [45] was greater than 100000 nM and the GI50 [46] was 41.3 nM. It also gave a TGI [46] greater than 100000 nM, a GI50 [47] greater than 100000 nM and a TGI [47] greater than 100000 nM. It also gave a GI50 [58] of 46.4 nM and a TGI [58] greater than 100000 nM.
